Assay results reported in PubChem BioAssay (NCI).
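Grown in 96-well plates, cells were treated for 48 hours with each compound at five concentrations. Insufficient inhibition: endpoint recorded as highest concentration tested. TGI: total growth inhibition.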

Key:
Experiment in all cases: inhibition of tumour cell growth, NCI panel, 48 h
[1] = system: A498 renal
[2] = system: HOP-62 NSCLC
[3] = system: HOP-92 NSCLC
[4] = system: KM12 colon
[5] = system: LOX IMVI melanoma
[6] = system: MCF7 breast
[7] = system: MDA-MB-435
[8] = system: MOLT-4 leukemia
[9] = system: NCI-H522 lung
[10] = system: NCI/ADR-RES ovarian
[11] = system: PC-3 prostate
[12] = system: SF-295 CNS
[13] = system: SK-MEL-28 melanoma
[14] = system: SNB-19 CNS
[15] = system: SW-620 colon
[16] = system: TK-10 renal
[17] = system: U251 CNS
[18] = system: UACC-257 melanoma
[19] = system: UACC-62 melanoma

## N#Cc1ccc(-c2nc3c(N)nc(-c4ccccc4)nc3o2)cc1
[1]
  TGI: > 100 µM
[2]
  TGI: > 100 µM
[3]
  TGI: > 100 µM
[4]
  TGI: > 100 µM
[5]
  TGI: > 100 µM
[6]
  TGI: > 100 µM
[7]
  TGI: > 100 µM
[8]
  TGI: > 100 µM
[9]
  TGI: > 100 µM
[10]
  TGI: > 100 µM
[11]
  TGI: > 100 µM
[12]
  TGI: > 100 µM
[13]
  TGI: > 100 µM
[14]
  TGI: > 100 µM
[15]
  TGI: > 100 µM
[16]
  TGI: > 100 µM
[17]
  TGI: 27.7 µM
[18]
  TGI: > 100 µM
[19]
  TGI: > 100 µM
